According to patent US20250255867A1 (Kadmon Corporation, LLC, priority 2022, published 2025):
Read-outs that look alike come from different tables or passages of the source.

Test: Example 1: plasma pharmacokinetics (Cmax, Tmax, AUC0-6 hr) of belumosudil and metabolites
Assay type: in vivo, human
Conditions: for Tmax: human, oral, read-out: Time of the Maximum Observed Plasma Concentration (Tmax), Median (Full Range); for Maximum Observed Plasma Concentration (Cmax), Geometric Mean (Geometric Coefficient of Variation) / Tmax: plasma
Protocol: Cmax was the maximum observed plasma concentration, obtained by a non-compartmental analysis. […] Timeframe: Cycles 1 and 2: pre-dose (0 hour), 1, 2, 3, 4, 5, and 6 hours post-dose on Day 1. […] Here, ‘number analyzed’=participants with available data for each specified category.
Tmax was defined as time to reach maximum observed plasma concentration, obtained by a non-compartmental analysis. […] Timeframe: Cycles 1 and 2: pre-dose (0 hour), 1, 2, 3, 4, 5, and 6 hours post-dose on Day 1. Analysis was performed on PK population. Here, ‘number analyzed’=participants with available data for each specified category.
AUC0-6 hr was defined as area under the plasma concentration versus time curve from time 0 to 6 hours post-dose, obtained by a non-compartmental analysis from the concentration-time data. […] Timeframe: Cycles 1 and 2: pre-dose (0 hour), 1, 2, 3, 4, 5, and 6 hours post-dose on Day 1. Analysis was performed on PK population. Here, ‘number analyzed’=participants with available data for each specified category.

[1] = Cohort 1: Belumosudil 200 mg QD, Cycle 1 Day 1
[2] = Cohort 1: Belumosudil 200 mg QD, Cycle 2 Day 1
[3] = Cohort 2: Belumosudil 200 mg BID, Cycle 1 Day 1
[4] = Cohort 2: Belumosudil 200 mg BID, Cycle 2 Day 1
[5] = Cohort 3: Belumosudil 400 mg QD, Cycle 1 Day 1
[6] = Cohort 3: Belumosudil 400 mg QD, Cycle 2 Day 1

SMILES: CC(C)NC(=O)COc1cccc(-c2nc(Nc3ccc4[nH]ncc4c3)c3ccccc3n2)c1 [Belumosudil, 2-{3-[4-(1H-indazol-5-ylamino)-2-quinazolinyl]phenoxy}-N-(propan-2-yl) acetamide]
- Area Under the Plasma Concentration Versus Time Curve From Time 0 to 6 Hours Post-dose (AUC0-6 hr), Geometric Mean (Geometric Coefficient of Variation) [1]: 8350 hours*nanograms per milliliter
- Maximum Observed Plasma Concentration (Cmax), Geometric Mean (Geometric Coefficient of Variation) [1]: 2500 (60.1%) nanograms per milliliter
- Area Under the Plasma Concentration Versus Time Curve From Time 0 to 6 Hours Post-dose (AUC0-6 hr), Geometric Mean (Geometric Coefficient of Variation) [2]: 7090 (95.9%) hours*nanograms per milliliter
- Maximum Observed Plasma Concentration (Cmax), Geometric Mean (Geometric Coefficient of Variation) [2]: 2020 (101%) nanograms per milliliter
- Area Under the Plasma Concentration Versus Time Curve From Time 0 to 6 Hours Post-dose (AUC0-6 hr), Geometric Mean (Geometric Coefficient of Variation) [3]: 4960 hours*nanograms per milliliter
- Maximum Observed Plasma Concentration (Cmax), Geometric Mean (Geometric Coefficient of Variation) [3]: 1400 (98.5%) nanograms per milliliter
- Area Under the Plasma Concentration Versus Time Curve From Time 0 to 6 Hours Post-dose (AUC0-6 hr), Geometric Mean (Geometric Coefficient of Variation) [4]: 7190 (115%) hours*nanograms per milliliter
- Maximum Observed Plasma Concentration (Cmax), Geometric Mean (Geometric Coefficient of Variation) [4]: 1890 (120%) nanograms per milliliter
- Area Under the Plasma Concentration Versus Time Curve From Time 0 to 6 Hours Post-dose (AUC0-6 hr), Geometric Mean (Geometric Coefficient of Variation) [5]: 11500 hours*nanograms per milliliter
- Maximum Observed Plasma Concentration (Cmax), Geometric Mean (Geometric Coefficient of Variation) [5]: 2960 (69.7%) nanograms per milliliter
- Area Under the Plasma Concentration Versus Time Curve From Time 0 to 6 Hours Post-dose (AUC0-6 hr), Geometric Mean (Geometric Coefficient of Variation) [6]: 12000 hours*nanograms per milliliter
- Maximum Observed Plasma Concentration (Cmax), Geometric Mean (Geometric Coefficient of Variation) [6]: 3270 (63.0%) nanograms per milliliter
- Tmax (200 mg, Cohort 1: Belumosudil 200 mg QD, Cycle 1 Day 1): 2.12 h
- Tmax (200 mg, Cohort 1: Belumosudil 200 mg QD, Cycle 2 Day 1): 2.53 h
- Tmax (200 mg, Cohort 2: Belumosudil 200 mg BID, Cycle 1 Day 1): 3.43 h
- Tmax (200 mg, Cohort 2: Belumosudil 200 mg BID, Cycle 2 Day 1): 2.47 h
- Tmax (400 mg, Cohort 3: Belumosudil 400 mg QD, Cycle 1 Day 1): 3.03 h
- Tmax (400 mg, Cohort 3: Belumosudil 400 mg QD, Cycle 2 Day 1): 2.66 h
